Experimental data taken from PMC4301837, “Aldosterone synthase inhibition: cardiorenal protection in animal disease models and translation of hormonal effects to human subjects” (Journal of Translational Medicine, 2014).
Like-named read-outs stand apart in the source and are kept apart here. Marks after values point to notes of the source that are not given here.

Legend:
[1] = in vivo; conditions: male, Sprague-Dawley, rat, plasma, po
Procedure: All animal procedures were conducted in accordance with an approved Novartis Animal Care and Use Committee protocol and the Guide for the Care and Use of Laboratory Animals as described previously [21]. Male S-D rats (~500 g) were purchased from Taconic Farms (Germantown, NY, USA) and acclimatized in the Novartis vivarium (12 h light/dark cycle; 72°F; 55% relative humidity) for at least 7 days before being used in experiments. Rats were provided normal chow (Harlan Teklad 8604) and water ad libitum except for a partial fast before and during an experiment.
Both rats and monkeys were surgically instrumented with chronically indwelling femoral venous and arterial catheters to allow intravenous administration of substances and repeated blood sampling.
All pharmacokinetic parameters were derived from concentration–time data by non-compartmental analyses and were calculated using WinNonlin (Enterprise, Version 5.2; Pharsight Corporation, Palo Alto, CA, USA).

[2] = human, 0.5–3 mg once daily oral
[3] = system: ACTH-stimulated plasma aldosterone and cortisol; assay: animal or person; conditions: Macaca fascicularis
[4] = system: ACTH-stimulated cortisol; conditions: rhesus monkeys, cited from earlier work
[5] = system: healthy male volunteers; assay: Human pharmacodynamics, multiple-dose phase; conditions: for Plasma potassium, Δ Day2 vs baseline (Day −1) / Plasma potassium, Δ Day7 vs baseline (Day −1) / Plasma potassium, Δ Day14 vs Day 7 / Plasma sodium, Δ Day2 vs baseline (Day −1) / Plasma sodium, Δ Day7 vs baseline (Day −1) / Plasma sodium, Δ Day14 vs Day 7 / Urinary potassium, Δ Day 1 vs baseline (Day −1) / Urinary potassium, Δ Day 7 vs baseline (Day −1) / Urinary potassium, Δ Day 14 vs Day 7 / Urinary sodium, Δ Day 1 vs baseline (Day −1) / Urinary sodium, Δ Day 7 vs baseline (Day −1) / Urinary sodium, Δ Day 14 vs Day 7: ANCOVA mean
[6] = target: recombinant human 11β-hydroxylase (CYP11B1) (Homo sapiens, UniProt P15538); conditions: Lineweaver–Burk plots; at higher concentrations
Sequence of recombinant human 11β-hydroxylase (CYP11B1) (P15538 25-503): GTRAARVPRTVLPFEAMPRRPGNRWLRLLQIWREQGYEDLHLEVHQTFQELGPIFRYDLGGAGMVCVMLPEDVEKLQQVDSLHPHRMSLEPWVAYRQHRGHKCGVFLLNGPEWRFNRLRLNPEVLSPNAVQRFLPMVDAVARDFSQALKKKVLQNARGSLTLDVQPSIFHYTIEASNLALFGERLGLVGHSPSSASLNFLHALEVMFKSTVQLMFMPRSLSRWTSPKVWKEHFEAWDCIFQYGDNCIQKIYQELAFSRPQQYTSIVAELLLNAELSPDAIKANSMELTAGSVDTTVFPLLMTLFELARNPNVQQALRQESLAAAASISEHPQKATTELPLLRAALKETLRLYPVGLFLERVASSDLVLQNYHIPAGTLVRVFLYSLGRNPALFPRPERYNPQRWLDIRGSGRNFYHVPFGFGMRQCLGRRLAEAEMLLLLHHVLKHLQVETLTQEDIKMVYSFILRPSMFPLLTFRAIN
Procedure: (§1) Recombinant rat CYP11B2 and CYP11B1 enzymes were prepared similarly. All cell lines were maintained in Dulbecco’s modified Eagle’s medium supplemented with 10% fetal bovine serum, 0.5× antibiotic, 800 μg/mL geneticin and 250 μg/mL hygromycin (double-selection medium; all from Invitrogen, Carlsbad, CA, USA).
(§2) Human CYP11B2 and CYP11B1 assays were performed as described previously [20]. The rat and monkey assays were conducted similarly, using 11-DOC as substrate.
(§3) Half-maximal inhibitory concentration (IC50) values were derived using a non-linear least-squares curve-fitting program (XLfit; ID Business Solutions Inc., Bridgewater, NJ, USA).
(§4) Aldosterone concentration was measured using 96-well plates. Each test sample was incubated with 0.02 µCi D-[1,2,6,7-^3H(N)]aldosterone (PerkinElmer, Boston, MA, USA) and 0.2 µg anti-aldosterone antibody (ATCC, Manassas, VA, USA) in phosphate-buffered saline containing 0.1% Triton X-100, 0.1% bovine serum albumin, and 12% glycerol (in a total volume of 200 µL) at room temperature for 1 h. Anti-mouse polyvinyltoluene (PVT) scintillation proximity assay (SPA) beads (50 µL: GE Health Sciences, Piscataway, NJ, USA) were then added to each well and incubated overnight at room temperature prior to counting in a Microbeta plate counter (PerkinElmer). […] The amount of aldosterone, cortisol or corticosterone was calculated by comparison with a standard curve.

[7] = target: recombinant rat 11β-hydroxylase (CYP11B1) (Rattus norvegicus, UniProt P15393); assay: biochemical
Sequence of recombinant rat 11β-hydroxylase (CYP11B1) (P15393 25-499): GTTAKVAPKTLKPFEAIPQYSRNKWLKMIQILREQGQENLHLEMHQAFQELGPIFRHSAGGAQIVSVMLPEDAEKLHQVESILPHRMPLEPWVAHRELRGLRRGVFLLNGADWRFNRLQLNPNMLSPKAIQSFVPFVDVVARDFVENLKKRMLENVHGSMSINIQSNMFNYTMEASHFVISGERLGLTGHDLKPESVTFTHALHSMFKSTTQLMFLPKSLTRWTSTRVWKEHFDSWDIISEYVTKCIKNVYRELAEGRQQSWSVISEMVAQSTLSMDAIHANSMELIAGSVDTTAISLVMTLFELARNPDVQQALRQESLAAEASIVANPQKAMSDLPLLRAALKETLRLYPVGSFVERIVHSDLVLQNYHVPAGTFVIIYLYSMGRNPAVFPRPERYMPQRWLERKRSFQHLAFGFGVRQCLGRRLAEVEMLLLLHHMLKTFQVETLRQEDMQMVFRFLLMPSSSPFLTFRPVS
Procedure: as §1, §2, §3, §4

[8] = LCI699 0.5 mg, Day 1, mean ± SEM

N#Cc1ccc([C@H]2CCc3cncn32)c(F)c1 [LCI699]
half-life [1]: 2 to 5 h
Tmax [2]: 1.00 to 1.25 h
ED50 ([3]; po, read-out: ED50 for inhibition of ACTH-stimulated plasma aldosterone): 0.013 mg/kg
EC50 ([3]; read-out: EC50 for inhibition of ACTH-stimulated plasma aldosterone): < 0.001 µM
effect on ACTH-stimulated cortisol ([4]; 3 mg/kg i.v.): reduced ACTH-stimulated cortisol
effect on ACTH-stimulated cortisol ([4]; i.v. 0.003–1 mg/kg): no effect
Plasma potassium, Δ Day2 vs baseline (Day −1) ([5]; LCI699 0.5 mg once daily): +0.20 mEq/L
Plasma potassium, Δ Day7 vs baseline (Day −1) ([5]; LCI699 0.5 mg once daily): +0.25^‡ mEq/L
Plasma potassium, Δ Day14 vs Day 7 ([5]; LCI699 0.5 mg once daily): +0.05 mEq/L
Plasma sodium, Δ Day2 vs baseline (Day −1) ([5]; LCI699 0.5 mg once daily): +0.23 mEq/L
Plasma sodium, Δ Day7 vs baseline (Day −1) ([5]; LCI699 0.5 mg once daily): −1.71^‡ mEq/L
Plasma sodium, Δ Day14 vs Day 7 ([5]; LCI699 0.5 mg once daily): +0.41 mEq/L
Urinary potassium, Δ Day 1 vs baseline (Day −1) ([5]; LCI699 0.5 mg once daily): +9.2 mEq/24 h
Urinary potassium, Δ Day 7 vs baseline (Day −1) ([5]; LCI699 0.5 mg once daily): +12.8 mEq/24 h
Urinary potassium, Δ Day 14 vs Day 7 ([5]; LCI699 0.5 mg once daily): +20.2 mEq/24 h
Urinary sodium, Δ Day 1 vs baseline (Day −1) ([5]; LCI699 0.5 mg once daily): +45.2^† mEq/24 h
Urinary sodium, Δ Day 7 vs baseline (Day −1) ([5]; LCI699 0.5 mg once daily): +3.6 mEq/24 h
Urinary sodium, Δ Day 14 vs Day 7 ([5]; LCI699 0.5 mg once daily): −25.5 mEq/24 h
change in 24 h urinary aldosterone levels from baseline ([5]; LCI699 0.5 mg, Day 1): –39%
reduction of 24 h urinary aldosterone [5, 8]: 39 ± 6%
reduction of plasma aldosterone [5, 8]: 49 ± 3%
change in pre-dose plasma ACTH from baseline ([5]; LCI699 0.5 mg, Day 6): −14.5%
increase in PRA from baseline ([5]; LCI699 0.5 mg, Day 7): 106%
increase in PRA compared with baseline ([5]; LCI699 0.5 mg, Day 14): 130%
Mean pre-dose plasma aldosterone levels ([5]; LCI699 1 mg and 3 mg once daily, Day 14): 209 to 293 pg/mL
Plasma potassium, Δ Day2 vs baseline (Day −1) ([5]; LCI699 1 mg once daily): +0.08 mEq/L
Plasma potassium, Δ Day7 vs baseline (Day −1) ([5]; LCI699 1 mg once daily): +0.12* mEq/L
Plasma potassium, Δ Day14 vs Day 7 ([5]; LCI699 1 mg once daily): −0.06 mEq/L
Plasma sodium, Δ Day2 vs baseline (Day −1) ([5]; LCI699 1 mg once daily): −0.59 mEq/L
Plasma sodium, Δ Day7 vs baseline (Day −1) ([5]; LCI699 1 mg once daily): −0.11 mEq/L
Plasma sodium, Δ Day14 vs Day 7 ([5]; LCI699 1 mg once daily): −0.01 mEq/L
Urinary potassium, Δ Day 1 vs baseline (Day −1) ([5]; LCI699 1 mg once daily): +9.7 mEq/24 h
Urinary potassium, Δ Day 7 vs baseline (Day −1) ([5]; LCI699 1 mg once daily): +17.4* mEq/24 h
Urinary potassium, Δ Day 14 vs Day 7 ([5]; LCI699 1 mg once daily): +4.2 mEq/24 h
Urinary sodium, Δ Day 1 vs baseline (Day −1) ([5]; LCI699 1 mg once daily): +76.3^‡ mEq/24 h
Urinary sodium, Δ Day 7 vs baseline (Day −1) ([5]; LCI699 1 mg once daily): +44.0 mEq/24 h
Urinary sodium, Δ Day 14 vs Day 7 ([5]; LCI699 1 mg once daily): −3.6 mEq/24 h
change in 24 h urinary aldosterone levels from baseline ([5]; LCI699 1 mg, Day 1): –39%
change in pre-dose plasma ACTH from baseline ([5]; LCI699 1 mg, Day 6): −31.4%
change in 24 h urinary aldosterone levels from baseline ([5]; LCI699 1 mg, Day 7): −12%
increase in PRA from baseline ([5]; LCI699 1 mg, Day 7): 277%
increase in PRA compared with baseline ([5]; LCI699 1 mg, Day 14): 327%
Plasma sodium, Δ Day2 vs baseline (Day −1) ([5]; LCI699 3 mg once daily): −0.73* mEq/L
Plasma sodium, Δ Day7 vs baseline (Day −1) ([5]; LCI699 3 mg once daily): −2.87^‡ mEq/L
Plasma sodium, Δ Day14 vs Day 7 ([5]; LCI699 3 mg once daily): −0.45 mEq/L
Urinary potassium, Δ Day 1 vs baseline (Day −1) ([5]; LCI699 3 mg once daily): +2.9 mEq/24 h
Urinary potassium, Δ Day 7 vs baseline (Day −1) ([5]; LCI699 3 mg once daily): +12.2 mEq/24 h
Urinary sodium, Δ Day 1 vs baseline (Day −1) ([5]; LCI699 3 mg once daily): +64.0^‡ mEq/24 h
Urinary sodium, Δ Day 7 vs baseline (Day −1) ([5]; LCI699 3 mg once daily): +22.2 mEq/24 h
Urinary sodium, Δ Day 14 vs Day 7 ([5]; LCI699 3 mg once daily): −17.2 mEq/24 h
change in 24 h urinary aldosterone levels from baseline ([5]; LCI699 3 mg, Day 1): –66%
change in pre-dose plasma ACTH from baseline ([5]; LCI699 3 mg, Day 6): −15.6%
change in 24 h urinary aldosterone levels from baseline ([5]; LCI699 3 mg, Day 7): −44%
increase in PRA from baseline ([5]; LCI699 3 mg, Day 7): 377%
increase in trough 11-DOC levels from baseline ([5]; LCI699 3 mg, Day 7): 228%
increase in PRA compared with baseline ([5]; LCI699 3 mg, Day 14): 238%
increase in pre-dose ACTH levels compared with baseline ([5]; LCI699 10 mg): 193%
increase in pre-dose plasma 11-deoxycortisol from baseline ([5]; LCI699 10 mg, Day 6): 508%
reduction in 24 h urinary cortisol ([5]; LCI699 10 mg, Day 7, one subject (second subject no change)): > 70%
plasma aldosterone following the 10 mg dose ([5]; LCI699 10 mg, data not shown): No further reduction
change in trough 11-DOC levels ([5]; LCI699 0.5 or 1 mg, Day 7): no change
effect on plasma or 24 h urinary cortisol ([5]; LCI699 0.5–3 mg, Day 1, 7 or 14): no significant effect
mode of inhibition of 11β-hydroxylase [6]: reversible competitive inhibitor
IC50 [7]: 0.41 ± 0.005 µM
